# Test results from US8231887B2, “Pesticidal compositions” (BASF Corporation, priority 2008, dated 2012).
# Several values for one entry are separate records, joined by “and”; a condition that tells them apart may be missing. Equal entries are not always repeated.
# Key:
# Assay type in all cases: in vivo, Blattella germanica
# [1] = test system: cockroaches; assay: Topical toxicity test of various compounds and/or PD23 mineral oil, dead at 24 h (Example 12); conditions: for Proportion dead at 24 h: calculated proportion; for increase in mortality when combined with PD23 mineral oil: result in words, compared to the other compounds tested
# Procedure: (§1) Toxicity evaluations were performed on 7-14 day old adult male and female German cockroaches (SCJ Strain, S.C. Johnson & Son, Racine, Wis.). Approximately 12 cockroaches were transferred to individual 100×20 mm polystyrene Petri dishes and anesthetized with a 15-25 second exposure to carbon dioxide. The inside edge of each Petri dish was lightly coated with mineral oil plus petroleum jelly in a 1:3 (wt/wt) ratio to minimize escape. Anesthetized cockroaches were positioned with their ventral side up, and a 1 μl drop of the diluted test composition was applied to the area between the meso- and metathoracic legs using a Rainin L-10, 10 μl capacity pipette (Rainin Instrument, LLC, Oakland, Calif.). Five replications of 12 male cockroaches were done for each test composition. Separate tests were done using female cockroaches. Results were evaluated at 24 hours following treatment. Cockroaches were scored as either alive (dorsal side up, active movement when abdomen prodded with dissecting probe) or moribund/dead (dorsal side up and no movement when abdomen prodded or ventral side up and insect unable to right itself).
# [2] = test system: cockroaches; assay: Topical toxicity test of alcohols and/or PD23 mineral oil, dead at 24 h (Example 10)
# Procedure: as §1
# The compositions comprising alcohol and/or mineral oil are described in Table 13.
# [3] = test system: cockroaches; assay: LD50 and LD10 of mineral oils and alcohols, dose-response mortality, probit analysis (Example 9); conditions: 95% CI printed in the line below
# Procedure: In this example, various mineral oils and alcohols were tested to determine, for cockroaches, the LD50 and LD10 for each.
# PD23 and PD28 mineral oils were obtained from Sonneborn LLC, Mahwah, N.J. The physical properties of these oils are shown in Table 11. Each mineral oil was tested to determine the LD50 and LD10 (Table 12).
# The tested alcohols were obtained from Sigma-Aldrich Corp., St. Louis, Mo. Each alcohol was tested to determine the LD50 and LD10 (Table 12).
# [4] = Table 14, composite data of the replicates
# [5] = Table 14, composite data, calculated proportion
# [6] = compound alone, 0.25 mg, one replicate group per row
# [7] = Table 17, composite data, listed as nitromethane (75-52-5) (0.80 mg)
compound,measurement,setting,value
CC(=O)OC(C)C [Isopropyl acetate],# dead at 24 h,"[1]; compound alone, 1.00 mg",1 and 2
same,Proportion dead at 24 hr,"[1]; compound alone, 1.00 mg",0.200
CC(C)O [Isopropyl alcohol],Proportion dead at 24 h,"[2]; Table 13, per replicate",0.000
same,# dead at 24 h,"[2]; Table 13, per replicate of 10-16 treated cockroaches, mg per insect in the label",0
same,# dead at 24 h,[2]; [4],0
same,Proportion dead at 24 h,[2]; [5],0.000
CO [Methanol],LD10 mg/insect,[3],Estimated at ~3.000 mg/insect
same,LD50 mg/insect,[3],>7.00 mg/insect
same,# dead at 24 h,"[2]; Table 13, per replicate of 10-16 treated cockroaches, mg per insect in the label, listed as methanol (3.0 mg)",0 (2×) and 1
same,Proportion dead at 24 h,"[2]; Table 13, per replicate, listed as methanol (3.0 mg)",0.000 (2×) and 0.077
same,# dead at 24 h,[2]; [4],1
same,Proportion dead at 24 h,[2]; [5],0.026
"CC(Cl)(Cl)Cl [Methyl chloroform (71-55-6) (2.00 mg), Methyl chloroform]",# dead at 24 h,"[1]; Table 17, composite data",2
same,Proportion dead at 24 h,"[1]; Table 17, composite data",0.095
CC(Cl)(Cl)Cl [Methyl chloroform],# dead at 24 h,"[1]; compound alone, 2.00 mg",1
same,Proportion dead at 24 hr,"[1]; compound alone, 2.00 mg",0.091 and 0.100
CC(=O)CC(C)C [Methyl isobutyl ketone],# dead at 24 h,"[1]; Table 17, composite data",1
same,Proportion dead at 24 h,"[1]; Table 17, composite data",0.048
COC(C)(C)C [Methyl t-butyl ether],# dead at 24 h,"[1]; Table 17, composite data",5
same,Proportion dead at 24 h,"[1]; Table 17, composite data",0.227
same,# dead at 24 h,"[1]; compound alone, 2.00 mg",2 and 3
same,Proportion dead at 24 hr,"[1]; compound alone, 2.00 mg",0.300
"c1ccncc1 [Pyridine (110-86-1) (0.10 mg), Pyridine]",# dead at 24 h,"[1]; Table 17, composite data",1
same,Proportion dead at 24 h,"[1]; Table 17, composite data",0.032
same,increase in mortality when combined with PD23 mineral oil,[1],greatest increase in mortality
"C1CCOC1 [Tetrahydrofuran (109-99-9) (0.80 mg), Tetrahydrofuran]",# dead at 24 h,"[1]; Table 17, composite data",3
same,Proportion dead at 24 h,"[1]; Table 17, composite data",0.300
C1CCOC1 [Tetrahydrofuran],# dead at 24 h,"[1]; compound alone, 0.80 mg",3
same,Proportion dead at 24 hr,"[1]; compound alone, 0.80 mg",0.300
"Cc1ccccc1 [Toluene (108-88-3) (0.90 mg), Toluene]",# dead at 24 h,"[1]; Table 17, composite data",0
same,Proportion dead at 24 h,"[1]; Table 17, composite data",0.000
Cc1ccccc1 [Toluene],# dead at 24 h,"[1]; compound alone, 0.90 mg",0
same,Proportion dead at 24 hr,"[1]; compound alone, 0.90 mg",0.000
"CC(=O)OCC(COC(C)=O)OC(C)=O [Triacetin (102-76-1) (2.0 mg), Triacetin]",# dead at 24 h,"[1]; Table 17, composite data",1
same,Proportion dead at 24 h,"[1]; Table 17, composite data",0.033
same,increase in mortality when combined with PD23 mineral oil,[1],greatest increase in mortality
"CCOCC [diethyl ether (60-29-7) (2.0 mg), diethyl ether]",# dead at 24 h,"[1]; Table 17, composite data",0
same,Proportion dead at 24 h,"[1]; Table 17, composite data",0.000
CCOCC [diethyl ether],# dead at 24 h,"[1]; compound alone, 2.00 mg",0
same,Proportion dead at 24 hr,"[1]; compound alone, 2.00 mg",0.000
"O=C1CCCO1 [gamma butyrolactone (96-48-0) (0.25 mg), gamma butyrolactone]",# dead at 24 h,"[1]; Table 17, composite data",11
same,Proportion dead at 24 h,"[1]; Table 17, composite data",0.407
same,increase in mortality when combined with PD23 mineral oil,[1],greatest increase in mortality
O=C1CCCO1 [gamma butyrolactone],# dead at 24 h,[1]; [6],3 and 5
same,Proportion dead at 24 hr,[1]; [6],0.300 and 0.500
CC(C)CO [isobutyl alcohol],# dead at 24 h,"[2]; Table 13, per replicate of 10-16 treated cockroaches, mg per insect in the label, listed as isobutyl alcohol (0.50 mg)",1
same,Proportion dead at 24 h,"[2]; Table 13, per replicate, listed as isobutyl alcohol (0.50 mg)",0.071
same,# dead at 24 h,[2]; [4],1
same,Proportion dead at 24 h,[2]; [5],0.026
CN1CCCC1=O [n-methyl pyrrolidone],Proportion dead at 24 h,"[1]; Table 17, composite data",0.100
same,Proportion dead at 24 h,"[1]; Table 17, composite data, listed as n-methyl pyrrolidone (872-50-4) (0.10 mg)",0.500
same,# dead at 24 h,"[1]; compound alone, 0.05 mg",1
same,# dead at 24 h,"[1]; compound alone, 0.10 mg",5
"C[N+](=O)[O-] [nitromethane (75-52-5) (0.70 mg), nitromethane]",# dead at 24 h,"[1]; Table 17, composite data",0
same,Proportion dead at 24 h,[1]; [7],0.179
same,# dead at 24 h,[1]; [7],5
same,increase in mortality when combined with PD23 mineral oil,[1],greatest increase in mortality
CC(C)(C)O [tertiary butyl alcohol],# dead at 24 h,"[2]; Table 13, per replicate of 10-16 treated cockroaches, mg per insect in the label, listed as t-butyl alcohol (0.5 mg)",0 (3×) and 2
same,Proportion dead at 24 h,"[2]; Table 13, per replicate, listed as t-butyl alcohol (0.5 mg)",0.000
same,# dead at 24 h,[2]; [4],2
same,Proportion dead at 24 h,[2]; [5],0.045
Diisopropyl biphenyl,# dead at 24 h,"[1]; Table 17, composite data",0
same,Proportion dead at 24 h,"[1]; Table 17, composite data",0.000
Hexanes,# dead at 24 h,"[1]; compound alone, 0.80 mg",1
same,Proportion dead at 24 hr,"[1]; compound alone, 0.80 mg",0.100
